Data published in ChEMBL document CHEMBL5131517 (ACS Med Chem Lett, 2022).
pEC50, pKi: −log10 of the molar value.

What was measured:
[1] = biological target: Sodium-dependent noradrenaline transporter (Homo sapiens) (UniProt P23975); experiment: Inhibition of NET receptor (unknown origin); conditions: concentration not given here
[2] = biological target: Sigma intracellular receptor 2 (Homo sapiens, UniProt Q5BJF2); experiment: Inhibition of sigma 2 receptor (unknown origin); conditions: concentration not given here
Sequence of Sigma intracellular receptor 2 (Q5BJF2 whole entry): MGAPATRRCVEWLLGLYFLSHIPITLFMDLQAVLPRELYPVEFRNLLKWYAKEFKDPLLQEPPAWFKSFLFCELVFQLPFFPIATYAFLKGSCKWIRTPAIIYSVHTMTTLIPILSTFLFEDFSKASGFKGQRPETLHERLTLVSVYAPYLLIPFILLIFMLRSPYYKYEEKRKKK

[3] = biological target: Muscarinic acetylcholine receptor M3 (Homo sapiens) (UniProt P20309); experiment: Inhibition of M3 receptor (unknown origin); conditions: concentration not given here
Sequence of Muscarinic acetylcholine receptor M3 (Homo sapiens) (P20309 whole entry, looked up): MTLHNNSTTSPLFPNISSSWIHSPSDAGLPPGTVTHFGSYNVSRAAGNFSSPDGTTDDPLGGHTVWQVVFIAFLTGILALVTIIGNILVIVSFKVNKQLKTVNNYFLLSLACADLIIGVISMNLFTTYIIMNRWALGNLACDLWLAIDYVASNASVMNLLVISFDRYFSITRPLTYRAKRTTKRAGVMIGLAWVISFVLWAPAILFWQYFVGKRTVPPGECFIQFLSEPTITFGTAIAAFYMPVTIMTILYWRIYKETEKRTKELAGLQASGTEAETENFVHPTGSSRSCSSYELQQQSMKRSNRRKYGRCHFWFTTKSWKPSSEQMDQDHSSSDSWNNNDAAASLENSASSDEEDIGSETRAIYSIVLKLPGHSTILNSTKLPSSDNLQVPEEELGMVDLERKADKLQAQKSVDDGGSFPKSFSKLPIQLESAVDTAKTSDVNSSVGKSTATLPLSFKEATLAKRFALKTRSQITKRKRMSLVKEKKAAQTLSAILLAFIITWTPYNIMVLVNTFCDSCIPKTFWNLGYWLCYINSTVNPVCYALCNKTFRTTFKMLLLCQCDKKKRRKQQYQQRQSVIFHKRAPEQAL

[4] = biological target: Kappa-type opioid receptor (Homo sapiens) (UniProt P41145); experiment: Inhibition of KOR receptor (unknown origin); conditions: concentration not given here
Sequence of Kappa-type opioid receptor (Homo sapiens) (P41145 whole entry): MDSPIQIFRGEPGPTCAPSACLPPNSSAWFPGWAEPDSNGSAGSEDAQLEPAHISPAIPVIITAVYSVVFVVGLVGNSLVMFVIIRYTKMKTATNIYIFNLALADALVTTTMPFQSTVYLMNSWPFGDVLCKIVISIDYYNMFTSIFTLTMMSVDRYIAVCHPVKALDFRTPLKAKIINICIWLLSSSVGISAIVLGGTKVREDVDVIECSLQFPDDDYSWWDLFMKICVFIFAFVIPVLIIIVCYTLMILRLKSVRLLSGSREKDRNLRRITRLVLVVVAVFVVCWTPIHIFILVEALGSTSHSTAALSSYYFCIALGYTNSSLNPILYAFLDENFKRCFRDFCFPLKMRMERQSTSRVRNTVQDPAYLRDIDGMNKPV

[5] = biological target: T1, Alpha-1A adrenergic receptor (Homo sapiens) (UniProt P35348); experiment: Inhibition of alpha1A receptor (unknown origin); conditions: concentration not given here
T1 sequence (whole entry): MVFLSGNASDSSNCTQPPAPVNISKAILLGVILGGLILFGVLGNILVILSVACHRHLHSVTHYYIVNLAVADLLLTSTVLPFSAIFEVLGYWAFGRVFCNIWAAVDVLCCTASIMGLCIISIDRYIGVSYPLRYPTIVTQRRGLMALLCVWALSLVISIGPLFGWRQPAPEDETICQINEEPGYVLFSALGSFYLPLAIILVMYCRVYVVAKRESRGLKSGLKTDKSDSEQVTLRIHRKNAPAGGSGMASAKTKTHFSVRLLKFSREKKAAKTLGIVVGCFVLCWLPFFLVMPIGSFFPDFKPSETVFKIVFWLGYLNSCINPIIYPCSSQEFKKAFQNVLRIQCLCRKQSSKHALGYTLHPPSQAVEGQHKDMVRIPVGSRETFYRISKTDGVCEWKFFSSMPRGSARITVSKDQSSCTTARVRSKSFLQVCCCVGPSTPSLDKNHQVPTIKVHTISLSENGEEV

[6] = biological target: 5-hydroxytryptamine receptor 2B (Homo sapiens, UniProt P41595); experiment: Binding affinity to 5HT2B receptor (unknown origin) assessed as inhibition constant
Sequence of 5-hydroxytryptamine receptor 2B (P41595 whole entry): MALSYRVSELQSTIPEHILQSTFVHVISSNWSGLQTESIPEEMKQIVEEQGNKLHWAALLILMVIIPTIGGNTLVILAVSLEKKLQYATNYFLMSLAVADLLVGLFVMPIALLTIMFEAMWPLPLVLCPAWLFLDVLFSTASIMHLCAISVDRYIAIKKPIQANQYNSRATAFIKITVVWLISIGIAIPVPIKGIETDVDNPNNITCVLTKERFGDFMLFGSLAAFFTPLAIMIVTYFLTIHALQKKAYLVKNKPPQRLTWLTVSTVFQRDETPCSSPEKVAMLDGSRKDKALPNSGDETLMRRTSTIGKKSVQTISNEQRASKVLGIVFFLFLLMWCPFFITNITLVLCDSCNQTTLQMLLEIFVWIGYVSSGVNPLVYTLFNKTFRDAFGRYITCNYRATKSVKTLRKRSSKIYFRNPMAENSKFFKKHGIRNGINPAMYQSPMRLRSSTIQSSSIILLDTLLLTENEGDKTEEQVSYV

[7] = biological target: T2, Alpha-1B adrenergic receptor (Homo sapiens) (UniProt P35368); experiment: Inhibition of alpha1B receptor (unknown origin); conditions: concentration not given here
T2 sequence (whole entry): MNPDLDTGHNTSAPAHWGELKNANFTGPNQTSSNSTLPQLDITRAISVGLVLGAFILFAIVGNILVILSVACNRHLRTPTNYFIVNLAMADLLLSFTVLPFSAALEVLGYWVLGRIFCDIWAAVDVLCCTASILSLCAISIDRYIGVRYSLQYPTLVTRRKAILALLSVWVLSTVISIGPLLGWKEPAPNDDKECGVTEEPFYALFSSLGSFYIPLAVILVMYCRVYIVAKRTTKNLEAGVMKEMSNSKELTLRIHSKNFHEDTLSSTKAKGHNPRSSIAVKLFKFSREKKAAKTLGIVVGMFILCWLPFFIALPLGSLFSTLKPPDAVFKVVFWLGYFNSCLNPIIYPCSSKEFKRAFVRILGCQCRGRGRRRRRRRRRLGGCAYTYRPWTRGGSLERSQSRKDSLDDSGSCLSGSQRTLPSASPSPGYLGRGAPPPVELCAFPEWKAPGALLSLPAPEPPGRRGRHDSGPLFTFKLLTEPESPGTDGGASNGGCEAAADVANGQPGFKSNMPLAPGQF

[8] = biological target: Sigma non-opioid intracellular receptor 1 (Homo sapiens, UniProt Q99720); experiment: Binding affinity to sigma 1 receptor (unknown origin) assessed as inhibition constant
[9] = biological target: Sodium-dependent serotonin transporter (Homo sapiens, UniProt P31645); experiment: Inhibition of SERT receptor (unknown origin); conditions: concentration not given here
Sequence of Sodium-dependent serotonin transporter (P31645 whole entry, looked up): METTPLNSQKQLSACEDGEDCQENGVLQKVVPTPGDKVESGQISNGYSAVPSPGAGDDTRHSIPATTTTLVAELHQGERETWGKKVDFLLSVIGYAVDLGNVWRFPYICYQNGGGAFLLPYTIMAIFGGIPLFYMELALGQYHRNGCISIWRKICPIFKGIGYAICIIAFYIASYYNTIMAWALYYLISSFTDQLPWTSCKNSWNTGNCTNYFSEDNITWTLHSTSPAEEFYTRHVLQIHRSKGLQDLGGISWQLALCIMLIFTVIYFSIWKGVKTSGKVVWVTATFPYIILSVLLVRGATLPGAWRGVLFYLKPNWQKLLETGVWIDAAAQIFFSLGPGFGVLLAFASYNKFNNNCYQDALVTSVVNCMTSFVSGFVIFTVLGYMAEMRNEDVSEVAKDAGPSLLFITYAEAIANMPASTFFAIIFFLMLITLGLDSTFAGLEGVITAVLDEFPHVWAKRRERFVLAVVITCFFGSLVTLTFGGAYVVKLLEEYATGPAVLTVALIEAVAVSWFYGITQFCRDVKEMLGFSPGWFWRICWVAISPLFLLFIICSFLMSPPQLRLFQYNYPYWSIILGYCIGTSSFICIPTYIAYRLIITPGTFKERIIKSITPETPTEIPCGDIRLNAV

[10] = biological target: Translocator protein (Homo sapiens) (UniProt P30536); experiment: Inhibition of peripheral benzodiazepine receptor (unknown origin); conditions: concentration not given here
Sequence of Translocator protein (Homo sapiens) (P30536 whole entry): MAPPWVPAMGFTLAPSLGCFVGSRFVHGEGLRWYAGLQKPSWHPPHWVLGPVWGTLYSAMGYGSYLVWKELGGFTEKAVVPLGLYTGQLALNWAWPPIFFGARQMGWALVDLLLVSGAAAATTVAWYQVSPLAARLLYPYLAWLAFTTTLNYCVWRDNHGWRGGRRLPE

[11] = biological target: T3, Muscarinic acetylcholine receptor M5 (Homo sapiens) (UniProt P08912); experiment: Inhibition of M5 receptor (unknown origin); conditions: concentration not given here
T3 sequence (whole entry): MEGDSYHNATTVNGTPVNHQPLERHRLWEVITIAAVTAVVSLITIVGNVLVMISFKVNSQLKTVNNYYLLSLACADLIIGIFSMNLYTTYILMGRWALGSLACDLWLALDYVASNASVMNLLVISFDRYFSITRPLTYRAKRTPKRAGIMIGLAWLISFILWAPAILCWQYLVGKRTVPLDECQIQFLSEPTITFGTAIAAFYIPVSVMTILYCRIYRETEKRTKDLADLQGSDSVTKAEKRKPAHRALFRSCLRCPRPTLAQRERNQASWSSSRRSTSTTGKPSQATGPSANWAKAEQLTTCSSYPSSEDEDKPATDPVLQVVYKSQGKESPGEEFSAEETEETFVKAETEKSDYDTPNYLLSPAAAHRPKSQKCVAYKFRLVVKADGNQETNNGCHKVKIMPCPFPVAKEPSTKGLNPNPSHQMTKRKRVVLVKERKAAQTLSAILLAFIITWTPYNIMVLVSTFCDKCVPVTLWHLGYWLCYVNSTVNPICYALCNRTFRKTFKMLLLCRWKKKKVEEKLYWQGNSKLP

[12] = biological target: 5-hydroxytryptamine receptor 7 (Homo sapiens, UniProt P34969); experiment: Binding affinity to 5HT7 receptor (unknown origin) assessed as inhibition constant
Sequence of 5-hydroxytryptamine receptor 7 (P34969 whole entry): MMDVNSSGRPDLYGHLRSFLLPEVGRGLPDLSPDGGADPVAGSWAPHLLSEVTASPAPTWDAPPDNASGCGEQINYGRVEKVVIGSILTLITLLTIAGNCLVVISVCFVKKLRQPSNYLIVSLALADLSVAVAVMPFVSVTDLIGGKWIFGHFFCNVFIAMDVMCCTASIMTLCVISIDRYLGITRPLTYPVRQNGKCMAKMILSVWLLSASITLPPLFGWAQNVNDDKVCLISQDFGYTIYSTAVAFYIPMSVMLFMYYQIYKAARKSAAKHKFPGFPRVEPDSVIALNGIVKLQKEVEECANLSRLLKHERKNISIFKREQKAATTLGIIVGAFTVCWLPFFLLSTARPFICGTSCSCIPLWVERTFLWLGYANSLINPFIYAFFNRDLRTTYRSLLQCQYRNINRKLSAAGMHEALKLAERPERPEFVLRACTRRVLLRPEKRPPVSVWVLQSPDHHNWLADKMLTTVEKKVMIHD

[13] = biological target: 5-hydroxytryptamine receptor 1E (Homo sapiens, UniProt P28566); experiment: Binding affinity to 5HT1E receptor (unknown origin) assessed as inhibition constant
Sequence of 5-hydroxytryptamine receptor 1E (P28566 whole entry): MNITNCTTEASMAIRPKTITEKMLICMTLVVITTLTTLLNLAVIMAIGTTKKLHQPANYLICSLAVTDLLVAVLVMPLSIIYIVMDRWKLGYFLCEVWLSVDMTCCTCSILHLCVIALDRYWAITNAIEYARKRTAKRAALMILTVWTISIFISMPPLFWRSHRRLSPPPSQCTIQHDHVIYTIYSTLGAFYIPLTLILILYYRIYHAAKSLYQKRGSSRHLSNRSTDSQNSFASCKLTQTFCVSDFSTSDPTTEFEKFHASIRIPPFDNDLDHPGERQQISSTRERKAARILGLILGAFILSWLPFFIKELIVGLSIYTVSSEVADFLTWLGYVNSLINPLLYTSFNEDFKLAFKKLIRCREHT

[14] = biological target: T4, 5-hydroxytryptamine receptor 2A (Homo sapiens, UniProt P28223); experiment: Binding affinity to 5HT2A receptor (unknown origin) assessed as inhibition constant
T4 sequence (P28223 whole entry): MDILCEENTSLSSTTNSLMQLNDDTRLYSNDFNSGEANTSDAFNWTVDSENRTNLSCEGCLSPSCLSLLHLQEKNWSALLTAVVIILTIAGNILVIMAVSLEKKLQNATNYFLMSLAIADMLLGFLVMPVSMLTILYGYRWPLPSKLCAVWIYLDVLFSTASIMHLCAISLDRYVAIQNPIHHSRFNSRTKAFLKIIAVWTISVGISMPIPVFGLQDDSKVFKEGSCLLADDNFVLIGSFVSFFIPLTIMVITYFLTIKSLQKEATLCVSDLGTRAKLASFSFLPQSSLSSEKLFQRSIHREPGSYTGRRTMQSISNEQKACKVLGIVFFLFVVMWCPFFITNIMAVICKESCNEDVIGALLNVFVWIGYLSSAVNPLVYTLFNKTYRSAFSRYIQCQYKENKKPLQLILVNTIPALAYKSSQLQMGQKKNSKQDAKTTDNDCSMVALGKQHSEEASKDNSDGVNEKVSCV

[15] = biological target: T5, Muscarinic acetylcholine receptor M1 (Homo sapiens) (UniProt P11229); experiment: Inhibition of M1 receptor (unknown origin); conditions: concentration not given here
T5 sequence (whole entry): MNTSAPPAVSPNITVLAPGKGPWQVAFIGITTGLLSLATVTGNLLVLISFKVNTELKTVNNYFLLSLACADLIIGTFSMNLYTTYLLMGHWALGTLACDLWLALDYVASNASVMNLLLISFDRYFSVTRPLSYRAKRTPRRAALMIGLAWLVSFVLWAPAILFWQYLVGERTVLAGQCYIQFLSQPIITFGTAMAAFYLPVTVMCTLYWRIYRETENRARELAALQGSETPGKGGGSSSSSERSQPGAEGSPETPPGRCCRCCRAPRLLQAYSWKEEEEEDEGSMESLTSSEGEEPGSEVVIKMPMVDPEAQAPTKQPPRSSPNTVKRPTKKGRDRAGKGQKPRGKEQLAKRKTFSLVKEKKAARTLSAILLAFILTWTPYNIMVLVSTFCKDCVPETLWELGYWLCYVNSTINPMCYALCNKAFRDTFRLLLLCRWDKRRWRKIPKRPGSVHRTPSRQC

[16] = biological target: T4, 5-hydroxytryptamine receptor 2A; experiment: Agonist activity at human 5HT2A receptor stably expressed in Flp-In-T-REx-293 cells assessed as increase in Gq-mediated calcium flux by Fluo-4 direct dye based FLIPR Tetra assay; format: functional, cell-based
[17] = biological target: Beta-3 adrenergic receptor (Homo sapiens) (UniProt P13945); experiment: Inhibition of beta 3 receptor (unknown origin); conditions: concentration not given here
Sequence of Beta-3 adrenergic receptor (Homo sapiens) (P13945 whole entry, looked up): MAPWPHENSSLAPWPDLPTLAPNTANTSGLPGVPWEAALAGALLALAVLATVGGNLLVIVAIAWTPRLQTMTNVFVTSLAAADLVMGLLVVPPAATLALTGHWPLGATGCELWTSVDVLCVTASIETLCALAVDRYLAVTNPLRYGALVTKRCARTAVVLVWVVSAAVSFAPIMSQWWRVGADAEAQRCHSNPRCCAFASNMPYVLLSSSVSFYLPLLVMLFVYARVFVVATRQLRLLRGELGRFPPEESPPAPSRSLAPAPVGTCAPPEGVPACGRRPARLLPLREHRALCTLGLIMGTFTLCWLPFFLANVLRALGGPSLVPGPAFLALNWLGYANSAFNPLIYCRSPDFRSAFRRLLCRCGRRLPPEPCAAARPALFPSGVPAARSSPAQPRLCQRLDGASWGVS

Sequence of Sodium-dependent noradrenaline transporter (Homo sapiens) (P23975 whole entry): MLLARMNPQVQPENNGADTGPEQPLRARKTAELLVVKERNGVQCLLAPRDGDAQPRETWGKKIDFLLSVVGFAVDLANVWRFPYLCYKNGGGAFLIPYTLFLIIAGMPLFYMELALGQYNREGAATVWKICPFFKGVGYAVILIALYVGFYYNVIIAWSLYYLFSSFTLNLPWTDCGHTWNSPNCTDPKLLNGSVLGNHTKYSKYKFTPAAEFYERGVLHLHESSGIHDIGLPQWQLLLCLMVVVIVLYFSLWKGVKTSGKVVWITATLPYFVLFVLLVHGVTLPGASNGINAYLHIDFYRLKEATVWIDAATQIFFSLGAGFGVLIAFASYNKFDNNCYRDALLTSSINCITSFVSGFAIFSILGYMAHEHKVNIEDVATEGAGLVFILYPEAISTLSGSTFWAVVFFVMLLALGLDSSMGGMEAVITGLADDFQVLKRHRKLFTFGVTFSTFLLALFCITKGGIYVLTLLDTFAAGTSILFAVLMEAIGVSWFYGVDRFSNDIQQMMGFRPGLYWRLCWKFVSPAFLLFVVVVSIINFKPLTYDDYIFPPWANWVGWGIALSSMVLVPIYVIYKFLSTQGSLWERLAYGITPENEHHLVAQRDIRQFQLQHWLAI

SMILES	inhibition [1] [%]	inhibition [2] [%]	inhibition [3] [%]	inhibition [4] [%]	inhibition [5] [%]	pKi [6]	inhibition [7] [%]	pKi [8]	inhibition [9] [%]	inhibition [10] [%]	inhibition [11] [%]	pKi [12]	pKi [13]	pKi [14]	inhibition [15] [%]	pEC50 [16]	inhibition [17] [%]
COc1ccc(C2NCCc3c2[nH]c2ccc(Cl)cc32)c(O)c1 (centres undefined)	< 50	< 50	< 50	< 50	< 50	8.34	< 50	5.99	< 50	< 50	< 50	8.10	5.76	6.65	< 50	8.08	< 50
COc1cc(OC)c(C2NCCc3c2[nH]c2ccc(Cl)cc32)cc1OC (centres undefined)	< 50	< 50	< 50	< 50	< 50	8.53	< 50	5.83	< 50	< 50	< 50	8.60	6.18	6.95	< 50	8.77	< 50
COc1cc(OC)c(C2NCCc3c2[nH]c2ccc(F)cc32)cc1OC (centres undefined)	< 50	–	< 50	< 50	< 50	7.25	< 50	6.12	< 50	< 50	< 50	6.60	–	5.61	< 50	7.41	< 50
COc1ccc(C2NCCc3c2[nH]c2ccc(F)cc32)c(O)c1 (centres undefined)	< 50	< 50	< 50	< 50	< 50	8.35	< 50	–	–	< 50	< 50	7.60	5.85	6.60	< 50	8.49	< 50
